Data as given in ChEMBL document CHEMBL3421546 (Bioorg Med Chem Lett, 2015).
Converted amounts (≈) assume the structure as drawn.

Columns and labels:
[1] = Cytotoxic activity against human HeLa cells assessed as cell viability at 10 ug/ml incubated for 24 hrs by MTT assay; format: cell-based; conditions: read-out: Activity
[2] = Cytotoxic activity against human HeLa cells assessed as reduction in cell viability incubated for 24 hrs by MTT assay; format: cell-based
[3] = Selectivity index, ratio of CC50 for human HeLa cells to IC50 for CQ-sensitive Plasmodium falciparum 3D7; format: functional
[4] = Cytotoxic activity against human HepG2 cells assessed as cell viability at 1 ug/ml incubated for 24 hrs by MTT assay; format: cell-based; conditions: read-out: Activity
[5] = Cytotoxic activity against human HepG2 cells assessed as cell viability at 0.1 ug/ml incubated for 24 hrs by MTT assay; format: cell-based; conditions: read-out: Activity
[6] = Cytotoxic activity against human HepG2 cells assessed as reduction in cell viability incubated for 24 hrs by MTT assay; format: cell-based
[7] = Cytotoxic activity against human HeLa cells assessed as cell viability at 1 ug/ml incubated for 24 hrs by MTT assay; format: cell-based; conditions: read-out: Activity
[8] = Cytotoxic activity against human HepG2 cells assessed as cell viability at 10 ug/ml incubated for 24 hrs by MTT assay; format: cell-based; conditions: read-out: Activity
[9] = Cytotoxic activity against human HeLa cells assessed as cell viability at 100 ug/ml incubated for 24 hrs by MTT assay; format: cell-based; conditions: read-out: Activity
[10] = Cytotoxic activity against human HeLa cells assessed as cell viability at 1000 ug/ml incubated for 24 hrs by MTT assay; format: cell-based; conditions: read-out: Activity
[11] = Cytotoxic activity against human HeLa cells assessed as cell viability at 0.1 ug/ml incubated for 24 hrs by MTT assay; format: cell-based; conditions: read-out: Activity
[12] = Cytotoxic activity against human HepG2 cells assessed as cell viability at 1000 ug/ml incubated for 24 hrs by MTT assay; format: cell-based; conditions: read-out: Activity
[13] = Selectivity index, ratio of CC50 for human HepG2 cells to IC50 for CQ-sensitive Plasmodium falciparum 3D7; format: functional
[14] = tested on: Plasmodium falciparum; test: Antimalarial activity against CQ-sensitive Plasmodium falciparum 3D7 cultivated in human type O+ red blood cells assessed as reduction in parasite infection incubated for 48 hrs by microscopy; format: functional, organism-based; conditions: 3D7, 48 h
[15] = Cytotoxic activity against human HepG2 cells assessed as cell viability at 100 ug/ml incubated for 24 hrs by MTT assay; format: cell-based; conditions: read-out: Activity
[16] = tested on: Plasmodium falciparum; test: Antimalarial activity against CQ-resistant Plasmodium falciparum W2 cultivated in human type O+ red blood cells assessed as reduction in parasite infection incubated for 48 hrs by microscopy; format: functional, organism-based; conditions: W2, 48 h
[17] = tested on: Plasmodium berghei; test: Antimalarial activity against Plasmodium berghei NK65 infected in Swiss albino mouse assessed as inhibition of parasitemia at 10 mg/kg, po dosed for four consecutive days beginning on first day of infection and measured on day 7 post infection relative to untreated control; format: functional; conditions: NK65, 168 h
[18] = tested on: Plasmodium berghei; test: Antimalarial activity against Plasmodium berghei NK65 infected in Swiss albino mouse assessed as parasitemia level at 10 mg/kg, po dosed for four consecutive days beginning on first day of infection and measured on day 12 post infection (reference value: 8.81 +/- 1.17%); format: functional
[19] = tested on: Plasmodium berghei; test: Antimalarial activity against Plasmodium berghei NK65 infected in Swiss albino mouse assessed as parasitemia level at 10 mg/kg, po dosed for four consecutive days beginning on first day of infection and measured on day 7 post infection (reference value: 5.42 +/- 0.79%); format: functional
[20] = tested on: Mus musculus; test: Toxicity in Plasmodium berghei NK65 infected Swiss albino mouse assessed as mouse survival at 10 mg/kg, po dosed for four consecutive days beginning on first day of infection and measured on day 7 post infection relative to untreated control; format: organism-based; design: dose 10 mg/kg, route oral; conditions: in vivo
[21] = tested on: Mus musculus; test: Toxicity in Plasmodium berghei NK65 infected Swiss albino mouse assessed as mouse mortality at 10 mg/kg, po dosed for four consecutive days beginning on first day of infection and measured on day 7 post infection relative to untreated control; format: organism-based; design: dose 10 mg/kg, route oral; conditions: in vivo
[22] = tested on: Mus musculus; test: Toxicity in Plasmodium berghei NK65 infected Swiss albino mouse assessed as mouse mortality at 10 mg/kg, po dosed for four consecutive days beginning on first day of infection and measured on day 12 post infection relative to untreated control; format: organism-based; design: dose 10 mg/kg, route oral; conditions: in vivo
[23] = tested on: Mus musculus; test: Toxicity in Plasmodium berghei NK65 infected Swiss albino mouse assessed as mouse survival at 10 mg/kg, po dosed for four consecutive days beginning on first day of infection and measured on day 12 post infection relative to untreated control; format: organism-based; design: dose 10 mg/kg, route oral; conditions: in vivo
[24] = tested on: Plasmodium berghei; test: Antimalarial activity against Plasmodium berghei NK65 infected in Swiss albino mouse assessed as inhibition of parasitemia at 10 mg/kg, po dosed for four consecutive days beginning on first day of infection and measured on day 12 post infection relative to untreated control; format: functional; conditions: NK65, 288 h

SMILES | viability at 24 h, 10 ug/ml [1] [%] | CC50 at 24 h [2] [µg/mL] | Ratio CC50/IC50 [3] | viability at 24 h, 1 ug/ml [4] [%] | viability at 24 h, 0.1 ug/ml [5] [%] | CC50 at 24 h [6] [µg/mL] | viability at 24 h, 1 ug/ml [7] [%] | viability at 24 h, 10 ug/ml [8] [%] | viability at 24 h, 100 ug/ml [9] [%] | viability at 24 h, 1000 ug/ml [10] [%] | viability at 24 h, 0.1 ug/ml [11] [%] | viability at 24 h, 1000 ug/ml [12] [%] | Ratio CC50/IC50 [13] | IC50 [14] [µg/mL] | viability at 24 h, 100 ug/ml [15] [%] | also measured
O=S(=O)(Nc1ncccn1)c1ccc(Nc2ccnc3cc(Cl)ccc23)cc1 | 76 | 494 (≈ 1200 µM) | 30 | 90 | 85 | > 1000 | 82 | 89 | 75 | 22 | 85 | 68 | >61 | 16.3 (≈ 39.6 µM) | 75 | 
C[C@H]1[C@H](OC(=O)CCC(=O)O)O[C@@H]2O[C@@]3(C)CC[C@H]4[C@H](C)CC[C@@H]1[C@@]24OO3 [ARTESUNATE] |  |  |  |  |  |  |  |  |  |  |  |  |  |  |  | IC50 [16]: < 0.39 µg/mL
Cc1cc(NS(=O)(=O)c2ccc(Nc3ccnc4cc(Cl)ccc34)cc2)no1 | 59 | 290 (≈ 699 µM) | 12 |  |  |  | 72 |  | 61 | 17 | 67 |  |  | 23.8 (≈ 57.5 µM) |  | 
O=S(=O)(Nc1ccccn1)c1ccc(Nc2ccnc3cc(Cl)ccc23)cc1 | 68 | 113 (≈ 275 µM) | 31 | 97 | 92 | 252 (≈ 613 µM) | 78 | 86 | 53 | 11 | 82 | 48 | 69 | 3.64 (≈ 8.86 µM) | 57 | 
CCN(CC)CCCC(C)Nc1ccnc2cc(Cl)ccc12 (centres undefined) [CHLOROQUINE] | 97 | > 1000 | >1000 | 97 | 93 | > 1000 | 94 | 92 | 100 | 92 | 98 | 60 | >1000 | < 0.19 | 67 | IC50 [16]: < 0.39 µg/mL; inhibition in vivo at 10 mg/kg [17]: 68%; Activity [18]: 1.55%; Activity [19]: 1.72%; Activity [20]: Non-toxic; Activity [21]: Non-toxic; Activity [22]: Non-toxic; Activity [23]: Non-toxic; inhibition in vivo at 10 mg/kg [24]: 82%
NS(=O)(=O)c1ccc(Nc2ccnc3cc(Cl)ccc23)cc1 | 100 | 793 (≈ 2380 µM) | 364 | 94 | 93 | 234 (≈ 701 µM) | 95 | 85 | 91 | 37 | 93 | 43 | 112 | 2.18 (≈ 6.53 µM) | 65 | 
NNC(=O)c1cccnc1 [NICOTINIC ACID HYDRAZIDE] | 92 | 153 (≈ 1120 µM) | <3.06 |  |  |  | 87 |  | 58 | 25 | 88 |  |  | > 50 |  | 
O=S(=O)(Nc1nccs1)c1ccc(Nc2ccnc3cc(Cl)ccc23)cc1 | 60 | 334 (≈ 801 µM) | 56 |  |  |  | 71 |  | 65 | 12 | 74 |  |  | 5.97 (≈ 14.3 µM) |  | 
